Test results reported in patent US20220332700A1, “NOVEL APOPTOSIS SIGNAL-REGULATING KINASE 1 INHIBITORS” (MANKIND PHARMA LTD, priority 2019, published 2022).

Key:
[1] = molecular target: T1, recombinant ASK1 (Homo sapiens, UniProt Q99683); test: ASK1 Biochemical Assay (HTRF KinEASE-STK S3); details: ATP 100 μM; read-out: Biochemical Assay IC50
T1 construct: purchased Carna Biosciences
Outline: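 Recombinant ASK1 (5 ng) preincubated with compound 1 h at 23 °C in MOPS pH 7 buffer with Mg-acetate, DTT, NP40, glycerol, BSA and 1% DMSO. Inhibition calculated against vehicle after substrate-blank subtraction.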

[2] = molecular target: T2, Human ASK1 (Homo sapiens, UniProt Q99683); test: ASK1 Cell Based Assay (phospho p38 read out in hASK1 transfected HEK293T-AP1 cells); details: HEK293T-AP1 cells, 1 mM hydrogen peroxide, phospho p38; read-out: Cell Based Assay IC50
T2 construct: expressed in transfected cells; host or cells: HEK293T-AP1
T2 sequence (Q99683 1-1374): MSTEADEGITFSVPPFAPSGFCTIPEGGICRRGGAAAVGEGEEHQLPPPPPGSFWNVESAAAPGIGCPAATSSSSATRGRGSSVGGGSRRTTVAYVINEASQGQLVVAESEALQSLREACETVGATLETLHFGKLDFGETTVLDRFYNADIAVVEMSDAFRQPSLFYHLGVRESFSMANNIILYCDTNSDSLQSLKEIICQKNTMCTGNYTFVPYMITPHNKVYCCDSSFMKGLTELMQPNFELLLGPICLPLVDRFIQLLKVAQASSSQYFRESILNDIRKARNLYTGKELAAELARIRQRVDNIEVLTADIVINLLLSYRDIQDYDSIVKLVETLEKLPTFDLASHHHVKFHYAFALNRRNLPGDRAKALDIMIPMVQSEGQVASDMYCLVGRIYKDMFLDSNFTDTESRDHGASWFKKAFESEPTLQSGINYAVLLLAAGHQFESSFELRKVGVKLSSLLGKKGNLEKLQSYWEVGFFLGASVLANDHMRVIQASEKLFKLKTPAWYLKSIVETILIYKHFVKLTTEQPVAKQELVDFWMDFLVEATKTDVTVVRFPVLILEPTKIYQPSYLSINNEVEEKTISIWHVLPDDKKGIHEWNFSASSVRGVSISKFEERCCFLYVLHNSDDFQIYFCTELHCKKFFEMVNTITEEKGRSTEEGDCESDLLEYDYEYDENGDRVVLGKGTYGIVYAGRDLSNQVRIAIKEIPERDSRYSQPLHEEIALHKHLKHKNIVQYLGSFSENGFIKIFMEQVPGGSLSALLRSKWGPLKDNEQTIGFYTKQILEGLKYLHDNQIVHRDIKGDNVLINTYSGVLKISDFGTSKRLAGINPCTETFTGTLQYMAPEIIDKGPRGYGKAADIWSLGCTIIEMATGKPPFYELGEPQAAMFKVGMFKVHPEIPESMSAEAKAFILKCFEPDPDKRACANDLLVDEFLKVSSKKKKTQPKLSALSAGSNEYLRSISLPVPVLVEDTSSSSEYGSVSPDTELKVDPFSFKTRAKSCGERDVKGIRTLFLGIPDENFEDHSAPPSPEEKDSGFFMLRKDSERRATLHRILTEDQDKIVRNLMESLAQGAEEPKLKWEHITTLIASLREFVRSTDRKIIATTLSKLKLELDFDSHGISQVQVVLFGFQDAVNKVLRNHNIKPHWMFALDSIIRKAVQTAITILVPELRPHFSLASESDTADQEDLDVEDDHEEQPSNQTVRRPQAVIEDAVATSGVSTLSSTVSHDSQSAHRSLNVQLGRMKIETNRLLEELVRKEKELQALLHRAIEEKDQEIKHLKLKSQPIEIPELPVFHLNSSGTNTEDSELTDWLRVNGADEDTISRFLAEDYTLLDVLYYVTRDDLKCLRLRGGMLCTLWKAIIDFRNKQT
Outline: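 HEK293T-AP1 cells transfected with hASK1, after 24 h treated with compounds for 24 h (0.2% DMSO), then stimulated with 1 mM H2O2 for 1 h with compounds present.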

IC50 [1]	IC50 [2]	Structure (SMILES)
< 50 nM	< 100 nM	CC(C)n1cnnc1-c1cccc(N2CCN(c3ccc(N4CC(C#N)C4)nc3)C2=O)n1 [Example 1107, 1-(5-(3-(6-(4-isopropyl-4H-1,2,4-triazol-3-yl)pyridin-2-yl)-2-oxoimidazolidin-1-yl)pyridin-2-yl)azetidine-3-carbonitrile]
> 100 nM	> 1000 nM	CC(C)n1cnnc1-c1cccc(N2CCN(c3cccc(N4CCOCC4)c3)C2=O)n1 [Example 1108, 1-(6-(4-isopropyl-4H-1,2,4-triazol-3-yl)pyridin-2-yl)-3-(3-morpholinophenyl)imidazolidin-2-one]
< 100 nM	> 1000 nM	CC(C)n1cnnc1-c1cccc(N2CCN(c3ccc(C(=O)NC4CC4)nc3)C2=O)n1 [Example 1109, N-cyclopropyl-5-(3-(6-(4-isopropyl-4H-1,2,4-triazol-3-yl)pyridin-2-yl)-2-oxoimidazolidin-1-yl)pyridine-2-carboxamide]
< 100 nM	> 1000 nM	CC(C)NC(=O)c1ccc(N2CCN(c3cccc(-c4nncn4C(C)C)n3)C2=O)cn1 [Example 1110, N-isopropyl-5-(3-(6-(4-isopropyl-4H-1,2,4-triazol-3-yl)pyridin-2-yl)-2-oxoimidazolidin-1-yl)pyridine-2-carboxamide]
< 100 nM	> 1000 nM	CC(C)n1cnnc1-c1cccc(N2CCN(Cc3ccc(N4CCOCC4)cc3)C2=O)n1 [Example 1112, 1-(4-morpholinobenzyl)-3-(6-(4-isopropyl-4H-1,2,4-triazol-3-yl)pyridin-2-yl)imidazolidin-2-one]
< 100 nM	> 1000 nM	CC(C)n1cnnc1-c1cccc(N2CCN(c3ccc(C(C#N)N4CCOCC4)nc3)C2=O)n1 (centres unmarked) [Example 1113, 2-(5-(3-(6-(4-isopropyl-4H-1,2,4-triazol-3-yl)pyridin-2-yl)-2-oxoimidazolidin-1-yl)pyridin-2-yl)-2-morpholinoacetonitrile]
< 10 nM	> 1000 nM	CC(c1ccc(N2CCN(c3cccc(-c4nncn4C(C)C)n3)C2=O)cc1)N1CCOCC1 (centres unmarked) [Example 1114, 1-(6-(4-isopropyl-4H-1,2,4-triazol-3-yl)pyridin-2-yl)-3-(4-(1-morpholinoethyl)phenyl)imidazolidin-2-one]
< 100 nM	> 1000 nM	CC(C)n1cnnc1-c1cccc(N2CCN(c3ccc(N4CC(C(N)=O)C4)nc3)C2=O)n1 [Example 1115, 1-(5-(3-(6-(4-isopropyl-4H-1,2,4-triazol-3-yl)pyridin-2-yl)-2-oxoimidazolidin-1-yl)pyridin-2-yl)azetidine-3-carboxamide]
< 50 nM	< 100 nM	CNC(=O)C1CCN(c2ccc(N3CCN(c4cccc(-c5nncn5C(C)C)n4)C3=O)cn2)CC1 [Example 1116, 1-(5-(3-(6-(4-isopropyl-4H-1,2,4-triazol-3-yl)pyridin-2-yl)-2-oxoimidazolidin-1-yl)pyridin-2-yl)-N-methylpiperidine-4-carboxamide]
< 100 nM	> 1000 nM	COCCCNc1ccc(N2CCN(c3cccc(-c4nncn4C(C)C)n3)C2=O)cn1 [Example 1118, 1-(6-(3-methoxypropylamino)pyridin-3-yl)-3-(6-(4-isopropyl-4H-1,2,4-triazol-3-yl)pyridin-2-yl)imidazolidin-2-one]
> 100 nM	> 1000 nM	CC(C)n1cnnc1-c1cccc(N2CCN(c3ccc(S(C)(=O)=O)s3)C2=O)n1 [Example 1123, 1-(6-(4-isopropyl-4H-1,2,4-triazol-3-yl)pyridin-2-yl)-3-(5-(methylsulfonyl)thiophen-2-yl)imidazolidin-2-one]
< 100 nM	> 1000 nM	CC(C)n1cnnc1-c1cccc(N2CCN(c3ccc4c(c3)C(C)(C)CS4(=O)=O)C2=O)n1 [Example 1124, 1-(3,3-dimethyl-1,1-dioxido-2,3-dihydrobenzo[b]thiophen-5-yl)-3-(6-(4-isopropyl-4H-1,2,4-triazol-3-yl)pyridin-2-yl)imidazolidin-2-one]
< 100 nM	> 1000 nM	CC(C)n1cnnc1-c1cccc(N2CCN(c3ccc4c(ccn4C)c3)C2=O)n1 [Example 1125, 1-(6-(4-isopropyl-4H-1,2,4-triazol-3-yl)pyridin-2-yl)-3-(1-methyl-1H-indol-5-yl)imidazolidin-2-one]
< 100 nM	> 1000 nM	CC(C)n1cnnc1-c1cccc(N2CCN(c3ccc(OCCS(C)(=O)=O)cc3)C2=O)n1 [Example 1126, 1-(4-(2-(methylsulfonyl)ethoxy)phenyl)-3-(6-(4-isopropyl-4H-1,2,4-triazol-3-yl)pyridin-2-yl)imidazolidin-2-one]
< 100 nM	> 1000 nM	CNC(=O)C1CCN(Cc2ccc(N3CCN(c4cccc(-c5nncn5C(C)C)n4)C3=O)cc2)CC1 [Example 1128, 1-(4-(3-(6-(4-isopropyl-4H-1,2,4-triazol-3-yl)pyridin-2-yl)-2-oxoimidazolidin-1-yl)benzyl)-N-methylpiperidine-4-carboxamide]
< 100 nM	> 1000 nM	CC(C)C(c1ccc(N2CCN(c3cccc(-c4nncn4C(C)C)n3)C2=O)cc1)N1CCOCC1 (centres unmarked) [Example 1129, 1-(6-(4-isopropyl-4H-1,2,4-triazol-3-yl)pyridin-2-yl)-3-(4-(2-methyl-1-morpholinopropyl)phenyl)imidazolidin-2-one]
< 50 nM	< 100 nM	CNC(=O)[C@@H]1CCN(c2ccc(N3CCN(c4cccc(-c5nncn5C(C)C)n4)C3=O)cc2)C1 [Example 1130, (R)-1-(4-(3-(6-(4-isopropyl-4H-1,2,4-triazol-3-yl)pyridin-2-yl)-2-oxoimidazolidin-1-yl)phenyl)-N-methylpyrrolidine-3-carboxamide]
< 100 nM	1560 nM	CNC(=O)[C@H]1CCN(c2ccc(N3CCN(c4cccc(-c5nncn5C(C)C)n4)C3=O)cc2)C1 [Example 1131, (S)-1-(4-(3-(6-(4-isopropyl-4H-1,2,4-triazol-3-yl)pyridin-2-yl)-2-oxoimidazolidin-1-yl)phenyl)-N-methylpyrrolidine-3-carboxamide]
< 100 nM	> 1000 nM	CC(C)n1cnnc1-c1cccc(N2CCN(c3ccc(NC4CCOC4)cc3)C2=O)n1 (centres unmarked) [Example 1133, 1-(6-(4-isopropyl-4H-1,2,4-triazol-3-yl)pyridin-2-yl)-3-(4-(tetrahydrofuran-3-ylamino)phenyl)imidazolidin-2-one]
< 100 nM	> 1000 nM	CC(C)C(C#N)C1CN(c2ccc(N3CCN(c4cccc(-c5nncn5C(C)C)n4)C3=O)cc2)C1 (centres unmarked) [Example 1134, 2-(1-(4-(3-(6-(4-isopropyl-4H-1,2,4-triazol-3-yl)pyridin-2-yl)-2-oxoimidazolidin-1-yl)phenyl)azetidin-3-yl)-3-methylbutanenitrile]
< 100 nM	> 1000 nM	CC(C)n1cnnc1-c1cccc(N2CCN(c3ccc(N4CCN(C)C(=O)C4)cc3)C2=O)n1 [Example 1135, 4-(4-(3-(6-(4-isopropyl-4H-1,2,4-triazol-3-yl)pyridin-2-yl)-2-oxoimidazolidin-1-yl)phenyl)-1-methylpiperazin-2-one]
< 100 nM	> 100 nM	CNC(=O)N1CCN(c2ccc(N3CCN(c4cccc(-c5nncn5C(C)C)n4)C3=O)cc2)CC1 [Example 1136, 4-(4-(3-(6-(4-isopropyl-4H-1,2,4-triazol-3-yl)pyridin-2-yl)-2-oxoimidazolidin-1-yl)phenyl)-N-methylpiperazine-1-carboxamide]
